# pIC50: −log10 of the molar value.
# Target: Ribosomal protein S6 kinase beta-1 (Homo sapiens, UniProt P23443, T412E)
# Assay: Enzyme Assay: P70S6K inhibitor compounds were diluted and plated in 96 well plates. A reaction mixture including the following components was then added to the compound plate to initiate the enzyme reaction; P70S6K (3 nM, T412E mutant, Millipore) was mixed with 24 μM ATP in an assay buffer containing 100 mM Hepes (pH 7.5), 5 mM MgCl2, 1 mM DTT, 0.015% Brij and 1 μM of the substrate peptide FITC-AHA-AKRRRLSSLRA-OH (derived from the S6 ribosomal protein sequence, FITC=fluorescein isothiocyanate, AHA=6-aminohexanoic acid). The reaction was incubated for 90 min at 25° C., before the addition of 10 mM EDTA to stop the reaction.
# Chain of Ribosomal protein S6 kinase beta-1 (P23443 whole entry T412E): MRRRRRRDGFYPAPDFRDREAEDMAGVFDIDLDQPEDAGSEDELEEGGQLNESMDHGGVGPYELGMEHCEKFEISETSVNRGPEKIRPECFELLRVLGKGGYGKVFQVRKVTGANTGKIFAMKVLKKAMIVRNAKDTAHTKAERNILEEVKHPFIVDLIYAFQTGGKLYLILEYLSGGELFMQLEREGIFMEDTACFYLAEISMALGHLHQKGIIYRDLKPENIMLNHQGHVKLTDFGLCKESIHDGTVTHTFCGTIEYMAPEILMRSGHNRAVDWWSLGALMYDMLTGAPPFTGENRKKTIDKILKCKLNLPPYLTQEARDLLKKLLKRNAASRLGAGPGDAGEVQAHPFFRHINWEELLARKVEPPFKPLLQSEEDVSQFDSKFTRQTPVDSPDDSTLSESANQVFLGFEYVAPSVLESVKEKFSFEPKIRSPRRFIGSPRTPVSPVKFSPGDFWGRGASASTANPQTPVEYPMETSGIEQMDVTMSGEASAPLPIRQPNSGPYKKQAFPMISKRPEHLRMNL
row,SMILES,pIC50
1,Nc1ncnc(N2CCC(C(N)c3ccc(-c4ccc(F)cc4)cc3)CC2)c1-c1ccc(F)cc1 (stereo not drawn),7.77
2,Nc1ncnc(N2CCC(C(N)c3ccc(F)cc3)CC2)c1-c1ccc(F)cc1 (stereo not drawn),7.57
3,Nc1ncnc(N2CCC(C(N)c3ccc(Cl)cc3)CC2)c1-c1ccc(F)cc1 (stereo not drawn),7.89

# Reference: ChEMBL document CHEMBL3886674, “Aminopyrimidine derivatives for use as modulators of kinase activity” (2016)
